Laboratory results reported in the CheMixHub viscosity set.

Assay: xn = mol fraction of the nth substance listed

C=Cc1ccccc1 + CCO
viscosity [mPa·s], 101.33 kPa
Details | x1 = 0.0997 | x1 = 0.1994 | x1 = 0.3013 | x1 = 0.3987 | x1 = 0.5004 | x1 = 0.6011 | x1 = 0.7001 | x1 = 0.7976 | x1 = 0.8989
298.15 K | 1.01 | 0.932 | 0.849 | 0.798 | 0.764 | 0.747 | 0.737 | 0.731 | 0.72
303.15 K | 0.93 | 0.861 | 0.777 | 0.735 | 0.711 | 0.701 | 0.693 | 0.688 | 0.679
308.15 K | 0.848 | 0.786 | 0.711 | 0.681 | 0.661 | 0.652 | 0.645 | 0.64 | 0.634

CCCCCCCCO + CCO
viscosity [mPa·s], 101 kPa
Details | 298.15 K | 303.15 K | 308.15 K | 318.15 K
x2 = 0.05 | 6.909 | – | 4.994 | 3.689
x2 = 0.1 | 6.475 | – | 4.73 | 3.51
x2 = 0.1301 | – | 5.471 | – | –
x2 = 0.15 | 6.058 | – | 4.466 | 3.331
x2 = 0.2 | 5.658 | – | 4.204 | 3.154
x2 = 0.243 | – | 4.607 | – | –
x2 = 0.25 | 5.273 | – | 3.945 | 2.979
x2 = 0.3 | 4.903 | – | 3.69 | 2.805
x2 = 0.3339 | – | 4.001 | – | –
x2 = 0.35 | 4.546 | – | 3.441 | 2.634
x2 = 0.4 | 4.202 | – | 3.198 | 2.466
x2 = 0.45 | 3.871 | – | 2.961 | 2.301
x2 = 0.5 | 3.552 | – | 2.733 | 2.14
x2 = 0.5477 | – | 2.922 | – | –
x2 = 0.55 | 3.245 | – | 2.512 | 1.982
x2 = 0.6 | 2.951 | – | 2.3 | 1.828
x2 = 0.65 | 2.668 | – | 2.096 | 1.678
x2 = 0.6979 | – | 2.169 | – | –
x2 = 0.7 | 2.398 | – | 1.901 | 1.532
x2 = 0.75 | 2.141 | – | 1.714 | 1.391
x2 = 0.8 | 1.897 | – | 1.535 | 1.254
x2 = 0.8094 | – | 1.689 | – | –
x2 = 0.85 | 1.668 | – | 1.364 | 1.121
x2 = 0.8948 | – | 1.362 | – | –
x2 = 0.9 | 1.453 | – | 1.199 | 0.9926
x2 = 0.95 | 1.255 | – | 1.04 | 0.8687
x2 = 0.9602 | – | 1.121 | – | –

CC(=O)c1ccc(Cl)cc1 + CCOC(=O)OCC
303.15 K, 101 kPa
Details | viscosity [mPa·s]
x2 = 0.0511 | 2.657
x2 = 0.1131 | 2.468
x2 = 0.1611 | 2.309
x2 = 0.2221 | 2.126
x2 = 0.2808 | 1.948
x2 = 0.3435 | 1.765
x2 = 0.4256 | 1.557
x2 = 0.5032 | 1.372
x2 = 0.6089 | 1.162
x2 = 0.6807 | 1.045
x2 = 0.7618 | 0.927
x2 = 0.8127 | 0.877
x2 = 0.8641 | 0.825
x2 = 0.9197 | 0.774
x2 = 0.9678 | 0.725

BrC(Br)Br + CCOC(C)=O
viscosity [mPa·s]
Details | x1 = 0.2695 | x1 = 0.2713 | x1 = 0.5228 | x1 = 0.529 | x1 = 0.7671 | x1 = 0.7683
298 K, 101.3 kPa | – | 0.754 | – | 1.141 | – | 1.565
318 K, 101.33 kPa | 0.6005 | – | 0.8779 | – | 1.179 | –

CC(C)(C)N + CCOC(C)=O
303.15 K, 101 kPa
Details | viscosity [mPa·s]
x1 = 0.168 | 0.4142
x1 = 0.2336 | 0.4185
x1 = 0.3514 | 0.424
x1 = 0.5046 | 0.4329
x1 = 0.5951 | 0.4363
x1 = 0.6618 | 0.4371
x1 = 0.8008 | 0.442
x1 = 0.8723 | 0.4431

CCCCCCCCO + CCOC(C)=O
viscosity [mPa·s]
Details | 298.15 K | 303.15 K | 308.15 K | 313.15 K
101 kPa, x1 = 0.0646 | 0.512 | 0.484 | 0.455 | 0.429
101 kPa, x1 = 0.1344 | 0.629 | 0.589 | 0.55 | 0.513
101 kPa, x1 = 0.2103 | 0.783 | 0.727 | 0.673 | 0.623
101 kPa, x1 = 0.2928 | 0.991 | 0.911 | 0.834 | 0.766
101 kPa, x1 = 0.3832 | 1.279 | 1.164 | 1.054 | 0.958
101 kPa, x1 = 0.4823 | 1.689 | 1.519 | 1.36 | 1.223
101 kPa, x1 = 0.5917 | 2.298 | – | 1.806 | 1.605
101 kPa, x1 = 0.713 | 3.246 | 2.844 | 2.482 | 2.179
101 kPa, x1 = 0.8483 | 4.801 | 4.144 | 3.563 | 3.083
101.33 kPa, x2 = 0.141 | 4.383 | 3.809 | 3.324 | –
101.33 kPa, x2 = 0.2701 | 2.825 | 2.512 | 2.215 | –
101.33 kPa, x2 = 0.3878 | 1.985 | 1.777 | 1.596 | –
101.33 kPa, x2 = 0.4964 | 1.449 | 1.292 | 1.152 | –
101.33 kPa, x2 = 0.5965 | 1.088 | 0.992 | 0.907 | –
101.33 kPa, x2 = 0.6891 | 0.841 | 0.798 | 0.724 | –
101.33 kPa, x2 = 0.7641 | 0.712 | 0.653 | 0.606 | –
101.33 kPa, x2 = 0.8552 | 0.585 | 0.542 | 0.51 | –
101.33 kPa, x2 = 0.9301 | 0.496 | 0.468 | 0.446 | –

CCOC(F)(F)C(F)(C(F)(F)F)C(F)(F)F + CCOC(F)(F)C(F)(F)C(F)(F)C(F)(F)F
100 kPa, x2 = 0.422
Details | viscosity [mPa·s]
298.16 K | 0.6423
303.18 K | 0.5987

CC(C)(C)N + CCOCCO
308.15 K, 101 kPa
Details | viscosity [mPa·s]
x2 = 0.1082 | 0.5474
x2 = 0.2145 | 0.6798
x2 = 0.3189 | 0.8102
x2 = 0.4214 | 0.9309
x2 = 0.5221 | 1.046
x2 = 0.6211 | 1.149
x2 = 0.7182 | 1.245
x2 = 0.8138 | 1.327
x2 = 0.9077 | 1.399

BrC(Br)Br + CN(C)C=O
Details | viscosity [mPa·s]
298 K, 101.3 kPa, x1 = 0.1418 | 1.075
298 K, 101.3 kPa, x1 = 0.2704 | 1.355
298 K, 101.3 kPa, x1 = 0.463 | 1.794
298 K, 101.3 kPa, x1 = 0.6145 | 2.007
298 K, 101.3 kPa, x1 = 0.7144 | 2.037
298 K, 101.3 kPa, x1 = 0.818 | 2.016
298.15 K, 101 kPa, x1 = 0.1458 | 1.048
298.15 K, 101 kPa, x1 = 0.1971 | 1.237
298.15 K, 101 kPa, x1 = 0.2942 | 1.486
298.15 K, 101 kPa, x1 = 0.3961 | 1.703
298.15 K, 101 kPa, x1 = 0.4962 | 1.956
298.15 K, 101 kPa, x1 = 0.5972 | 2.102
298.15 K, 101 kPa, x1 = 0.6959 | 2.122
298.15 K, 101 kPa, x1 = 0.7985 | 2.147
298.15 K, 101 kPa, x1 = 0.8992 | 2.074
303.15 K, 101 kPa, x1 = 0.1458 | 0.9843
303.15 K, 101 kPa, x1 = 0.1971 | 1.162
303.15 K, 101 kPa, x1 = 0.2942 | 1.371
303.15 K, 101 kPa, x1 = 0.3961 | 1.567
303.15 K, 101 kPa, x1 = 0.4962 | 1.793
303.15 K, 101 kPa, x1 = 0.5972 | 1.927
303.15 K, 101 kPa, x1 = 0.6959 | 1.953
303.15 K, 101 kPa, x1 = 0.7985 | 1.966
303.15 K, 101 kPa, x1 = 0.8992 | 1.934
308.15 K, 101 kPa, x1 = 0.1458 | 0.9091
308.15 K, 101 kPa, x1 = 0.1971 | 1.066
308.15 K, 101 kPa, x1 = 0.2942 | 1.267
308.15 K, 101 kPa, x1 = 0.3961 | 1.443
308.15 K, 101 kPa, x1 = 0.4962 | 1.643
308.15 K, 101 kPa, x1 = 0.5972 | 1.765
308.15 K, 101 kPa, x1 = 0.6959 | 1.801
308.15 K, 101 kPa, x1 = 0.7985 | 1.839
308.15 K, 101 kPa, x1 = 0.8992 | 1.797
313.15 K, 101 kPa, x1 = 0.1458 | 0.8479
313.15 K, 101 kPa, x1 = 0.1971 | 1
313.15 K, 101 kPa, x1 = 0.2942 | 1.173
313.15 K, 101 kPa, x1 = 0.3961 | 1.329
313.15 K, 101 kPa, x1 = 0.4962 | 1.513
313.15 K, 101 kPa, x1 = 0.5972 | 1.622
313.15 K, 101 kPa, x1 = 0.6959 | 1.66
313.15 K, 101 kPa, x1 = 0.7985 | 1.705
313.15 K, 101 kPa, x1 = 0.8992 | 1.679
318 K, 101.33 kPa, x1 = 0.1317 | 0.819
318 K, 101.33 kPa, x1 = 0.2705 | 1.046
318 K, 101.33 kPa, x1 = 0.4636 | 1.313
318 K, 101.33 kPa, x1 = 0.6142 | 1.471
318 K, 101.33 kPa, x1 = 0.7204 | 1.518
318 K, 101.33 kPa, x1 = 0.8296 | 1.519

C=Cc1ccccc1 + CN(C)C=O
viscosity [mPa·s], 101.33 kPa
Details | x1 = 0.109 | x1 = 0.2013 | x1 = 0.2959 | x1 = 0.3998 | x1 = 0.5052 | x1 = 0.6012 | x1 = 0.6979 | x1 = 0.8049 | x1 = 0.8976
298.15 K | 0.831 | 0.845 | 0.854 | 0.858 | 0.86 | 0.856 | 0.847 | 0.825 | 0.794
303.15 K | 0.78 | 0.79 | 0.801 | 0.804 | 0.802 | 0.798 | 0.79 | 0.768 | 0.735
308.15 K | 0.732 | 0.742 | 0.749 | 0.75 | 0.749 | 0.746 | 0.739 | 0.717 | 0.685

CC(=O)c1ccc(Cl)cc1 + CN(C)c1ccccc1
viscosity [mPa·s], 101 kPa
Details | 303.15 K | 308.15 K
x2 = 0.0685 | 2.238 | 2.175
x2 = 0.1369 | 2.129 | 2.065
x2 = 0.2085 | 2.019 | 1.954
x2 = 0.2801 | 1.913 | 1.849
x2 = 0.3517 | 1.816 | 1.752
x2 = 0.4754 | 1.663 | 1.597
x2 = 0.551 | 1.576 | 1.511
x2 = 0.6023 | 1.53 | 1.46
x2 = 0.6538 | 1.478 | 1.409
x2 = 0.7316 | 1.404 | 1.335
x2 = 0.7852 | 1.355 | 1.288
x2 = 0.8376 | 1.307 | 1.243
x2 = 0.9175 | 1.24 | 1.177

CC(=O)c1ccc(Cl)cc1 + CNC(C)=O
308.15 K, 101 kPa
Details | viscosity [mPa·s]
x1 = 0.0644 | 3.273
x1 = 0.1311 | 3.223
x1 = 0.2036 | 3.141
x1 = 0.2825 | 3.035
x1 = 0.3696 | 2.906
x1 = 0.4664 | 2.765
x1 = 0.5774 | 2.604
x1 = 0.7003 | 2.452
x1 = 0.8405 | 2.331
